Results: ChEMBL document CHEMBL4316596, “Antimicrobial Peptides with High Proteolytic Resistance for Combating Gram-Negative Bacteria” (J Med Chem, 2019)

Columns and labels:
Escherichia coli [1] = assay: Antimicrobial activity against Escherichia coli K88 after 24 hrs by NCCLS-protocol based assay; type: functional; settings: K88, 24 h
Pseudomonas aeruginosa [2] = assay: Antimicrobial activity against Pseudomonas aeruginosa CICC 21630 clinical isolates after 24 hrs by NCCLS-protocol based assay; type: functional; settings: CICC 21630, 24 h
Escherichia coli [3] = assay: Bactericidal activity against Escherichia coli UB1005 incubated for 4 hrs followed by culture spread on agar plates and cultured overnight; type: functional; settings: UB1005, 4 h, read-out: MBC>99.9
Acinetobacter baumannii [4] = assay: Antimicrobial activity against Acinetobacter baumannii after 24 hrs by NCCLS-protocol based assay; type: functional
Escherichia coli [5] = assay: Bactericidal activity against Escherichia coli 078 incubated for 4 hrs followed by culture spread on agar plates and cultured overnight; type: functional; settings: Escherichia coli, 078, 4 h; read-out: MBC>99.9
Pseudomonas aeruginosa [6] = assay: Bactericidal activity against Pseudomonas aeruginosa 25349 clinical isolates incubated for 4 hrs followed by culture spread on agar plates and cultured overnight; type: functional; settings: Pseudomonas aeruginosa, 25349, 4 h; read-out: MBC>99.9
Klebsiella pneumoniae [7] = assay: Bactericidal activity against Klebsiella pneumoniae incubated for 4 hrs followed by culture spread on agar plates and cultured overnight; type: functional; settings: read-out: MBC>99.9
[8] = Antimicrobial activity against Salmonella pullorum C7913 after 24 hrs by NCCLS-protocol based assay; type: functional, Salmonella enterica subsp. enterica serovar Pullorum; settings: Salmonella enterica, C7913, 24 h
Pseudomonas aeruginosa [9] = assay: Bactericidal activity against Pseudomonas aeruginosa 26305 clinical isolates incubated for 4 hrs followed by culture spread on agar plates and cultured overnight; type: functional; settings: Pseudomonas aeruginosa, 26305, 4 h; read-out: MBC>99.9
Klebsiella pneumoniae [10] = assay: Antimicrobial activity against Klebsiella pneumoniae after 24 hrs by NCCLS-protocol based assay; type: functional
[11] = Bactericidal activity against Salmonella pullorum C7913 incubated for 4 hrs followed by culture spread on agar plates and cultured overnight; type: functional, Salmonella enterica subsp. enterica serovar Pullorum; settings: Salmonella enterica, C7913, 4 h; read-out: MBC>99.9
Escherichia coli [12] = assay: Bactericidal activity against Escherichia coli ATCC 25922 incubated for 4 hrs followed by culture spread on agar plates and cultured overnight; type: functional; settings: ATCC 25922, 4 h, read-out: MBC>99.9
Pseudomonas aeruginosa [13] = assay: Bactericidal activity against Pseudomonas aeruginosa CICC 21625 clinical isolates incubated for 4 hrs followed by culture spread on agar plates and cultured overnight; type: functional; settings: CICC 21625, 4 h, read-out: MBC>99.9
Pseudomonas aeruginosa [14] = assay: Antimicrobial activity against Pseudomonas aeruginosa CICC 21625 clinical isolates after 24 hrs by NCCLS-protocol based assay; type: functional; settings: CICC 21625, 24 h
Escherichia coli [15] = assay: Antimicrobial activity against Escherichia coli 078 after 24 hrs by NCCLS-protocol based assay; type: functional; settings: Escherichia coli, 078, 24 h
Pseudomonas aeruginosa [16] = assay: Antimicrobial activity against Pseudomonas aeruginosa 26305 clinical isolates after 24 hrs by NCCLS-protocol based assay; type: functional; settings: Pseudomonas aeruginosa, 26305, 24 h
Salmonella typhimurium [17] = assay: Antimicrobial activity against Salmonella typhimurium C7731 after 24 hrs by NCCLS-protocol based assay; type: functional, Salmonella enterica subsp. enterica serovar Typhimurium; settings: Salmonella enterica, C7731, 24 h
Pseudomonas aeruginosa [18] = assay: Antimicrobial activity against Pseudomonas aeruginosa PAO1 after 24 hrs by NCCLS-protocol based assay; type: functional; settings: PAO1, 24 h
Escherichia coli [19] = assay: Antimicrobial activity against Escherichia coli ATCC 25922 after 24 hrs by NCCLS-protocol based assay; type: functional; settings: ATCC 25922, 24 h
Escherichia coli [20] = assay: Antimicrobial activity against Escherichia coli UB1005 after 24 hrs by NCCLS-protocol based assay; type: functional; settings: UB1005, 24 h
Escherichia coli [21] = assay: Bactericidal activity against Escherichia coli K99 incubated for 4 hrs followed by culture spread on agar plates and cultured overnight; type: functional; settings: K99, 4 h, read-out: MBC>99.9
Salmonella typhimurium [22] = assay: Antimicrobial activity against Salmonella typhimurium ATCC 14028 after 24 hrs by NCCLS-protocol based assay; type: functional, Salmonella enterica subsp. enterica serovar Typhimurium; settings: Salmonella enterica, ATCC 14028, 24 h
Salmonella typhimurium [23] = assay: Bactericidal activity against Salmonella typhimurium ATCC 14028 incubated for 4 hrs followed by culture spread on agar plates and cultured overnight; type: functional, Salmonella enterica subsp. enterica serovar Typhimurium; settings: Salmonella enterica, ATCC 14028, 4 h; read-out: MBC>99.9
Escherichia coli [24] = assay: Bactericidal activity against Escherichia coli K88 incubated for 4 hrs followed by culture spread on agar plates and cultured overnight; type: functional; settings: K88, 4 h, read-out: MBC>99.9
Pseudomonas aeruginosa [25] = assay: Antimicrobial activity against Pseudomonas aeruginosa ATCC 27853 after 24 hrs by NCCLS-protocol based assay; type: functional; settings: ATCC 27853, 24 h
Pseudomonas aeruginosa [26] = assay: Antimicrobial activity against Pseudomonas aeruginosa 25349 clinical isolates after 24 hrs by NCCLS-protocol based assay; type: functional; settings: Pseudomonas aeruginosa, 25349, 24 h
Pseudomonas aeruginosa [27] = assay: Bactericidal activity against Pseudomonas aeruginosa ATCC 27853 incubated for 4 hrs followed by culture spread on agar plates and cultured overnight; type: functional; settings: ATCC 27853, 4 h, read-out: MBC>99.9
Pseudomonas aeruginosa [28] = assay: Bactericidal activity against Pseudomonas aeruginosa PAO1 incubated for 4 hrs followed by culture spread on agar plates and cultured overnight; type: functional; settings: PAO1, 4 h, read-out: MBC>99.9
Escherichia coli [29] = assay: Antimicrobial activity against Escherichia coli K99 after 24 hrs by NCCLS-protocol based assay; type: functional; settings: K99, 24 h
Salmonella typhimurium [30] = assay: Bactericidal activity against Salmonella typhimurium C7731 incubated for 4 hrs followed by culture spread on agar plates and cultured overnight; type: functional, Salmonella enterica subsp. enterica serovar Typhimurium; settings: Salmonella enterica, C7731, 4 h; read-out: MBC>99.9
Acinetobacter baumannii [31] = assay: Bactericidal activity against Acinetobacter baumannii incubated for 4 hrs followed by culture spread on agar plates and cultured overnight; type: functional; settings: read-out: MBC>99.9
Pseudomonas aeruginosa [32] = assay: Bactericidal activity against Pseudomonas aeruginosa CICC 21630 clinical isolates incubated for 4 hrs followed by culture spread on agar plates and cultured overnight; type: functional; settings: CICC 21630, 4 h, read-out: MBC>99.9

| MIC95 (Escherichia coli [1]) [µM] | MIC95 (Pseudomonas aeruginosa [2]) [µM] | MIC95 (Acinetobacter baumannii [4]) [µM] | MIC95 [8] [µM] | MIC95 (Klebsiella pneumoniae [10]) [µM] | MIC95 (Pseudomonas aeruginosa [14]) [µM] | MIC95 (Escherichia coli [15]) [µM] | MIC95 (Pseudomonas aeruginosa [16]) [µM] | MIC95 (Salmonella typhimurium [17]) [µM] | MIC95 (Pseudomonas aeruginosa [18]) [µM] | MIC95 (Escherichia coli [19]) [µM] | MIC95 (Escherichia coli [20]) [µM] | Substance | MBC (Escherichia coli [3]) [µM] | MBC (Escherichia coli [5]) [µM] | MBC (Pseudomonas aeruginosa [6]) [µM] | MBC (Klebsiella pneumoniae [7]) [µM] | MBC (Pseudomonas aeruginosa [9]) [µM] | MBC [11] [µM] | MBC (Escherichia coli [12]) [µM] | MBC (Pseudomonas aeruginosa [13]) [µM] | further results |
| --- | --- | --- | --- | --- | --- | --- | --- | --- | --- | --- | --- | --- | --- | --- | --- | --- | --- | --- | --- | --- | --- |
| 1 | 4 | 1 | 2 | 1 | 4 | 2 | 4 | 4 | 1 | 1 | 2 | H-LKPLLKPLLKPLLKPLLKPLLKPLLKPLLKPL-NH2 | 4 | 2 | 16 | 2 | 8 | 4 | 1 | 16 | MBC (Escherichia coli [21]): 2 µM; MIC95 (Salmonella typhimurium [22]): 2 µM; MBC (Salmonella typhimurium [23]): 4 µM; MBC (Escherichia coli [24]): 1 µM; MIC95 (Pseudomonas aeruginosa [25]): 2 µM; MIC95 (Pseudomonas aeruginosa [26]): 4 µM; MBC (Pseudomonas aeruginosa [27]): 2 µM; MBC (Pseudomonas aeruginosa [28]): 2 µM; MIC95 (Escherichia coli [29]): 1 µM; MBC (Salmonella typhimurium [30]): 4 µM; MBC (Acinetobacter baumannii [31]): 1 µM; MBC (Pseudomonas aeruginosa [32]): 8 µM |
| 8 | > 64 | 2 | 8 | > 64 | 64 | 16 | > 64 | 64 | > 64 | 8 | 32 | H-LRPLLRPLLRPLLRPL-NH2 | 32 | 16 | > 64 | > 64 | > 64 | 16 | 8 | > 64 | MBC (Escherichia coli [21]): 32 µM; MIC95 (Salmonella typhimurium [22]): 32 µM; MBC (Salmonella typhimurium [23]): 64 µM; MBC (Escherichia coli [24]): 8 µM; MIC95 (Pseudomonas aeruginosa [25]): > 64 µM; MIC95 (Pseudomonas aeruginosa [26]): > 64 µM; MBC (Pseudomonas aeruginosa [27]): > 64 µM; MBC (Pseudomonas aeruginosa [28]): > 64 µM; MIC95 (Escherichia coli [29]): 32 µM; MBC (Salmonella typhimurium [30]): 64 µM; MBC (Acinetobacter baumannii [31]): 8 µM; MBC (Pseudomonas aeruginosa [32]): > 64 µM |
| 2 | 16 | 2 | 2 | 8 | 32 | 4 | 32 | 4 | 32 | 4 | 4 | H-LRPLLRPLLRPLLRPLLRPL-NH2 | 8 | 4 | 32 | 8 | 32 | 4 | 4 | 32 | MBC (Escherichia coli [21]): 8 µM; MIC95 (Salmonella typhimurium [22]): 4 µM; MBC (Salmonella typhimurium [23]): 16 µM; MBC (Escherichia coli [24]): 4 µM; MIC95 (Pseudomonas aeruginosa [25]): 32 µM; MIC95 (Pseudomonas aeruginosa [26]): 32 µM; MBC (Pseudomonas aeruginosa [27]): 16 µM; MBC (Pseudomonas aeruginosa [28]): 32 µM; MIC95 (Escherichia coli [29]): 4 µM; MBC (Salmonella typhimurium [30]): 8 µM; MBC (Acinetobacter baumannii [31]): 4 µM; MBC (Pseudomonas aeruginosa [32]): 16 µM |
| 1 | 4 | 1 | 1 | 2 | 8 | 1 | 2 | 2 | 2 | 2 | 2 | H-LRPLLRPLLRPLLRPLLRPLLRPLLRPLLRPL-NH2 | 4 | 2 | 4 | 4 | 4 | 2 | 2 | 8 | MBC (Escherichia coli [21]): 2 µM; MIC95 (Salmonella typhimurium [22]): 2 µM; MBC (Salmonella typhimurium [23]): 4 µM; MBC (Escherichia coli [24]): 1 µM; MIC95 (Pseudomonas aeruginosa [25]): 2 µM; MIC95 (Pseudomonas aeruginosa [26]): 2 µM; MBC (Pseudomonas aeruginosa [27]): 4 µM; MBC (Pseudomonas aeruginosa [28]): 4 µM; MIC95 (Escherichia coli [29]): 1 µM; MBC (Salmonella typhimurium [30]): 4 µM; MBC (Acinetobacter baumannii [31]): 1 µM; MBC (Pseudomonas aeruginosa [32]): 4 µM |
